Target: T1, IDO1 (Homo sapiens, UniProt P14902)
T1 construct: HeLa cells were treated with a test compound in the presence of IFNγ, which induces IDO1 expression; endogenous in cells; host or cells: H1-HeLa cells (ATCC #CRL-1958), induced with IFNγ
Assay: Cell-based (HeLa) assay for measurement of IDO1 inhibition (kynurenine levels in supernatant after IFNγ induction)
Details: H1-HeLa cells, IFNγ-induced IDO1, 48 hour incubation, kynurenine absorbance at 480 nm; geometric mean of a minimum of four determinations
Protocol: To measure IDO1 inhibition in tissue culture, HeLa cells were treated with a test compound in the presence of IFNγ, which induces IDO1 expression. Following incubation, cell supernatants were assayed for kynurenine levels, an indicator of IDO1 activity.
H1-HeLa cells (ATCC #CRL-1958) were seeded in 384-well plates (Greiner #82051-282) at a volume […] (Corning #15-018-CM) supplemented with 10% FBS (Corning #35-011-CV) and 1% P/S/G (Corning #30-009-CL) at a density of 1,250 cells/well and incubated overnight at 37° C., 5% CO2/100% humidity. The following day, the test compounds were added in DMSO (0.5% final) at various concentrations, and IDO1 was inducibly expressed by the addition of 50 uL/well of 50 ng/mL of INFγ(Peprotech #300-02) in cell plating media. As a positive control, 50 uL of the cell plating media without IFNγ was added to several wells. Following a 48 hour incubation, the plates were spun down at 1,200 RPM for 5 min at 10° C. 65 μL/well of the supernatant was then transferred to new 384-well plates (Thermo #262160) that contained 10 uL/well of 30% TCA (Sigma #T0699), and the plates were sealed and incubated at 60° C. for 30 min. The plates were then centrifuged for 15 min at 2,000 RPM at 10° C. 40 μL/well of the supernatant was transferred to new 384-well plates (Thermo #262160) and was reacted with 40 μL/well of 2% (w/v) p-dimethylaminobenzaldehyde (Sigma #156417) in glacial acetic acid (Sigma #A6283). The reaction was incubated at room temperature for 10 min and absorbance at 480 nm was read using a PerkinElmer Envision plate reader.
Data in Table 1 were normalized based on positive (−IFNγ) and negative (+IFNγ) controls and EC50 values were calculated from the fit of the dose-response curves to a four-parameter equation. All EC50 values represent geometric mean values of a minimum of four determinations. These assays generally produced results within 2-fold of the reported mean.

T1 sequence (P14902 whole entry): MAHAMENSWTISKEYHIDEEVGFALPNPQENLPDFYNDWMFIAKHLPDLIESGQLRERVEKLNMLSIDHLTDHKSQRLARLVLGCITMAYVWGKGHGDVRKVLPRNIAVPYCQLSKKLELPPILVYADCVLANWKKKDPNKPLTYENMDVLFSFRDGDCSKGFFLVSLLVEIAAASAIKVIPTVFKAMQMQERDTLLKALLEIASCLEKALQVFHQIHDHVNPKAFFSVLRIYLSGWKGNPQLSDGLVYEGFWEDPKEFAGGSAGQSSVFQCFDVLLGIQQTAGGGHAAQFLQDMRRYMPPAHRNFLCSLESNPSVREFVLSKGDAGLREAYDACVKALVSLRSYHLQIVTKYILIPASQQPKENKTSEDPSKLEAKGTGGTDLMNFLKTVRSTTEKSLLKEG

Structure (SMILES)	EC50 [nM]
Cc1ncc(-c2cccn3c(-c4cccc(F)c4F)cnc23)cc1C(=O)Nc1ccc(Cl)cc1 [Example 61, N-(4-chlorophenyl)-5-(3-(2,3-difluorophenyl)imidazo[1,2-a]pyridin-8-yl)-2-methylnicotinamide]	29.9
O=C(Nc1ccc(F)cc1)c1nc(-c2cccn3c(-c4cccc(F)c4F)ncc23)ccc1C(F)(F)F [Example 38, 6-(3-(2,3-difluorophenyl)imidazo[1,5-a]pyridin-8-yl)-N-(4-fluorophenyl)-3-(trifluoromethyl)picolinamide]	23.8
Cc1nc(-c2cccc(F)c2F)n2cccc(-c3ccc(C(F)(F)F)c(C(=O)Nc4ccc(F)cc4)c3)c12 [Example 44, 5-(3-(2,3-difluorophenyl)-1-methylimidazo[1,5-a]pyridin-8-yl)-N-(4-fluorophenyl)-2-(trifluoromethyl)benzamide]	16.9
Cc1ccc(-c2cccn3c(-c4cccc(F)c4F)ncc23)nc1C(=O)Nc1ccc(F)cc1 [Example 57]	76.8
O=C(Nc1ccc(F)cc1)c1cc(-c2cccn3c(-c4cccc(F)c4F)ncc23)cnc1N1CCC1 [Example 94, 2-(azetidin-1-yl)-5-(3-(2,3-difluorophenyl)imidazo[1,5-a]pyridin-8-yl)-N-(4-fluorophenyl)nicotinamide]	124
O=C(Nc1ccc(F)cc1)c1cccc(-c2cccn3c(-c4cccc(F)c4F)ncc23)n1 [Example 83, 6-(3-(2,3-difluorophenyl)imidazo[1,5-a]pyridin-8-yl)-N-(4-fluorophenyl)picolinamide]	207
Cc1ccc(-c2cccn3c(-c4ccc(F)cc4C)nnc23)cc1C(=O)Nc1ccc(F)cc1 [Example 5, 5-(3-(4-fluoro-2-methylphenyl)-[1,2,4]triazolo[4,3-a]pyridin-8-yl)-N-(4-fluorophenyl)-2-methylbenzamide]	1410
Cc1ncc(-c2cccn3c(C4CCOCC4)ncc23)cc1C(=O)Nc1ccc(F)cc1 [Example 75, N-(4-fluorophenyl)-2-methyl-5-(3-(tetrahydro-2H-pyran-4-yl)imidazo[1,5-a]pyridin-8-yl)nicotinamide]	591
O=C(Nc1ccc(F)cc1)c1cc(-c2cccn3c(-c4cccc(F)c4F)ncc23)ccc1OC(F)(F)F [Example 55]	15
Cc1ncc(-c2cccn3c(-c4cccc(F)c4C(F)(F)F)ncc23)cc1C(=O)Nc1ccc(F)cc1 [Example 18, 5-(3-(3-fluoro-2-(trifluoromethyl)phenyl)imidazo[1,5-a]pyridin-8-yl)-N-(4-fluorophenyl)-2-methylnicotinamide]	211
[2H]c1c([2H])c(NC(=O)c2cc(-c3cccn4c(-c5cccc(F)c5F)ncc34)cnc2C)c([2H])c([2H])c1F [Example 73, 5-(3-(2,3-difluorophenyl)imidazo[1,5-a]pyridin-8-yl)-N-(4-fluorophenyl-2,3,5,6-d4)-2-methylnicotinamide]	23.9
Cc1ncc(-c2cccn3c(C4CCCCC4)ncc23)cc1C(=O)Nc1ccc(F)cc1 [Example 93, 5-(3-cyclohexylimidazo[1,5-a]pyridin-8-yl)-N-(4-fluorophenyl)-2-methylnicotinamide]	250
Fc1ccc2[nH]c(-c3cc(-c4cccn5c(-c6cccc(F)c6F)ncc45)ccc3C(F)(F)F)nc2c1 [Example 95, 2-(5-(3-(2,3-difluorophenyl)imidazo[1,5-a]pyridin-8-yl)-2-(trifluoromethyl)phenyl)-5-fluoro-1H-benzo[d]imidazole]	24.3
Cc1cc(NC(=O)c2cc(-c3cccn4c(-c5cccc(F)c5F)ncc34)cnc2C)ccn1 [Example 71, 5-(3-(2,3-difluorophenyl)imidazo[1,5-a]pyridin-8-yl)-2-methyl-N-(2-methylpyridin-4-yl)nicotinamide]	656

Now from value to compound:

EC50 [nM]	Structure (SMILES)
1330	NC(=O)c1ccnc(-c2ncc3c(-c4ccc(C(F)(F)F)c(C(=O)Nc5ccc(F)cc5)c4)cccn23)c1 [Example 6, 2-(8-(3-((4-fluorophenyl)carbamoyl)-4-(trifluoromethyl)phenyl)imidazo[1,5-a]pyridin-3-yl)isonicotinamide]
683	Cc1ccc(-c2cccn3c(-c4cccnc4)nnc23)cc1C(=O)Nc1ccc(F)cc1 [Example 11, N-(4-fluorophenyl)-2-methyl-5-(3-(pyridin-3-yl)-[1,2,4]triazolo[4,3-a]pyridin-8-yl)benzamide]
2160	Cc1ccc(-c2cccn3c(-c4cccnc4C)nnc23)cc1C(=O)Nc1ccc(F)cc1 [Example 4, N-(4-fluorophenyl)-2-methyl-5-(3-(2-methylpyridin-3-yl)-[1,2,4]triazolo[4,3-a]pyridin-8-yl)benzamide]
39	Cc1ncc(-c2cccn3c(-c4cc(F)ccc4F)ncc23)cc1C(=O)Nc1ccc(F)cc1 [Example 30]
712	N#Cc1ccnc(-c2ncc3c(-c4ccc(C(F)(F)F)c(C(=O)Nc5ccc(F)cc5)c4)cccn23)c1 [Example 10, 5-(3-(4-cyanopyridin-2-yl)imidazo[1,5-a]pyridin-8-yl)-N-(4-fluorophenyl)-2-(trifluoromethyl)benzamide]
25.2	O=C(Nc1ccc(F)cc1)c1cc(-c2cccn3c(-c4cnccn4)ncc23)ccc1C(F)(F)F [Example 36]
17.2	Cc1ncc(-c2cccn3c(-c4cccc(F)c4F)ncc23)cc1C(=O)Nc1ccc(F)cc1 [Example 43, 5-(3-(2,3-difluorophenyl)imidazo[1,5-a]pyridin-8-yl)-N-(4-fluorophenyl)-2-methylnicotinamide]
274	N#Cc1cccnc1-c1ncc2c(-c3ccc(C(F)(F)F)c(C(=O)Nc4ccc(F)cc4)c3)cccn12 [Example 15, 5-(3-(3-cyanopyridin-2-yl)imidazo[1,5-a]pyridin-8-yl)-N-(4-fluorophenyl)-2-(trifluoromethyl)benzamide]
192	Cc1ccc(-c2cccn3c(-c4cccc(F)c4F)nnc23)cc1C(=O)Nc1ccc(F)cc1 [Example 20, 5-(3-(2,3-difluorophenyl)-[1,2,4]triazolo[4,3-a]pyridin-8-yl)-N-(4-fluorophenyl)-2-methylbenzamide]
656	Cc1ccc(-c2nccn3c(-c4cccc(F)c4F)ncc23)cc1C(=O)Nc1ccc(F)cc1 [Example 51, 5-(3-(2,3-difluorophenyl)imidazo[1,5-a]pyrazin-8-yl)-N-(4-fluorophenyl)-2-methylbenzamide]
235	Cc1ncc(-c2cccn3c(-c4cccc(Cl)c4)ncc23)cc1C(=O)Nc1ccc(F)cc1 [Example 81, 5-(3-(3-chlorophenyl)imidazo[1,5-a]pyridin-8-yl)-N-(4-fluorophenyl)-2-methylnicotinamide]
2630	Cc1ccc(-c2nccn3c(-c4ccccn4)ncc23)cc1C(=O)Nc1ccc(F)cc1 [Example 54, N-(4-fluorophenyl)-2-methyl-5-(3-(pyridin-2-yl)imidazo[1,5-a]pyrazin-8-yl)benzamide]
730	Cc1ccn2c(-c3cccc(F)c3F)ncc2c1-c1cnc(C)c(C(=O)Nc2ccc(F)cc2)c1 [Example 77, 5-(3-(2,3-difluorophenyl)-7-methylimidazo[1,5-a]pyridin-8-yl)-N-(4-fluorophenyl)-2-methylnicotinamide]
3110	Cc1ccc(-c2nccn3c(-c4ccccc4C)ncc23)cc1C(=O)Nc1ccc(F)cc1 [Example 52, N-(4-fluorophenyl)-2-methyl-5-(3-(o-tolyl)imidazo[1,5-a]pyrazin-8-yl)benzamide]

— US11040033B2 (Gilead Sciences, Inc., priority 2017, dated 2021)
